Measured values taken from patent US20100256332A1, “GLP-1 Fusion Peptides, Their Production and Use” (BIOCOMPATIBLES UK LTD, priority 2007, published 2010).
Each block holds one substance with its values, some of them ahead of it. Where no end group is shown, it is not given here.

How the values were obtained:
[1] = tested on: diabetic C57BL/KsJ@Rj-db (db/db) mice; test: Dose-efficacy study in diabetic mice; assay type: in vivo, mouse; settings: for fall in plasma glucose @1 h: 1 hour after single s.c. injection of 1.1-3.0 nmol peptide; for fall in plasma glucose @1 h / fall in plasma glucose @4 h: versus control; for fall in plasma glucose @4 h: 4 hours after single s.c. injection of 1.1-3.0 nmol peptide; for plasma glucose ED50: single s.c. dose, percentage decrease of blood glucose at 1h
Description: A sixth group was treated with saline only. 7 animals were treated per group. Blood glucose was determined from tail bleeds directly before, 1 hour and 4 hours after injection.
The results are shown in dose-response curves according to FIG. 8 (FIG. 8A (GLP-1), FIG. 8B (CM1), FIG. 8C(CM3) and FIG. 8D (CM3-ANA01)). For every test substance a graph was prepared with the percentage difference of the blood glucose in relation to the start value for the different concentrations. […] Both models are sigmoidal fit models suitable for dose response evaluation. For every peptide the plasma glucose ED50 values (single s.c. dose in μg/mouse) have been determined from the percentage decrease of blood glucose.
The fall in plasma glucose and the corresponding significance levels are given for the time period 1 hour (@1 h) and 4 hours (@4h) after peptide injection. Differences have been observed in the long-term efficacy of the peptides.

[2] = In vitro plasma stability, kinetic test method; settings: 1 μM peptide, 10% human plasma, 37° C., 0-9 hours
Description: (§1) Results are from triplicates in at least two independent experiments.

[3] = tested on: C57BL/KsJ@Rj-db (db/db) mice; test: Long-term treatment of db/db mice; assay type: in vivo, mouse; settings: for non fasted blood glucose level 1h after s.c. peptide injection, compared to control: tail bleed 1 hour after injection; for fasted blood glucose level 18h after peptide injection: 12-hour overnight fast, 18 hours after s.c. injection; for food consumption: weekly, 122 day treatment period, compared to the control
Description: The regimen was continued for 18 weeks. From week 12 to 18 treatment was done twice a day in 6 of 12 animals per group. Various parameters of the mice were investigated, i.e. health status (1), body weight (2), food consumption (3), blood glucose (4), glucose tolerance test (5), insulin data (6), glycosylated hemoglobin (7), pathology (8), and restimulation of T cells (9). • Health status (1) was good in all groups, no side effects of the treatment have been seen. • Body weight (2) was lower in all treated groups after 18 weeks of treatment (FIG. 9). […] The relative body weight increase of 12 animals per group after a treatment of 122 days is plotted. […] Non-fasted blood glucose level (1 hour after peptide injection) is shown in FIG. 11A, i.e. the effect of a treatment with saline (A), CM1 (B), CM3-ANA01 (C) or exendin (D) on the non-fasted blood glucose levels. Blood glucose was measured from a tail bleed 1 hour after s.c. injection of saline (A) or the peptides CM1 (B), CM3-ANA01 (C) or exendin (D) in a concentration of 24 nmol/kg. Compared to control non fasted blood glucose level 1h after s.c. peptide injection is reduced to 55% in group B, 51% in group C and 60% in group D (FIG. 11B). The blood glucose decrease in the treated groups treated groups is highly significant (p<0.0001). Fasted blood glucose level (18 hours after peptide injection) are shown in FIG. 11C, i.e. the effect of a treatment with saline (A), CM1 (B), CM3-ANA01 (C) or exendin (D) on the fasted blood glucose levels. Blood glucose was measured from a tail bleed after a 12-hour overnight fast 18 hours after s.c. injection of the test substances. Fasted blood glucose level 18h after peptide injection is reduced in the CM1 and CM3-ANA01 group. • An i.p. glucose tolerance test (5) (IPGTT) was conducted after 8 weeks of treatment on mice of the groups A-D. […] Blood glucose has been further on determined 15, 30, 45, 60, 90 and 120 minutes after glucose injection. A significant normalization of glucose tolerance was shown in all treated groups (FIG. 12A). In FIG. 12A absolute blood glucose levels during an i.p. glucose tolerance test (IPGTT) after 8 weeks of treatment with saline (A), CM1 (B), CM3-ANA01 (C) or exendin (D) is shown (mean values of each group (n=12)). • Another presentation of the data presented by FIG. 12A of the blood glucose tolerance test is given in FIG. 12B. Relative blood glucose levels during an i.p. glucose tolerance test (IPGTT) after 8 weeks of treatment with saline (A), CM1 (B), CM3-ANA01 (C) or exendin (D) normalized on the starting blood glucose level (100%). • Insulin levels (6) were determined from mice after a 12 hour overnight fastening period. […] Directly after sampling blood samples have been treated with a protease inhibitor cocktail to avoid insulin degradation. The serum was analysed for insulin with the Insulin Mouse Ultrasensitive ELISA (Cat.# EIA-3440, DRG). Significance has been determine with Student's t-test. • Glycosylated hemoglobin (7) is formed by excess plasma glucose binding to hemoglobin in red blood cells (RBC). Since RBCs have a 120-day lifespan, measurements of the glycolylated hemoglobin gives a longer-term indication of glucose control and is seen as a better indicator than plasma glucose levels. Whole blood was collected from the retro-orbital sinus and analyzed with the Enzymatic HbA1c Test Kit (#DZ121A, Diazyme) to determine the glycosylated hemoglobin levels. […] The mean value of all animals per group (n=12) is given. […] Therefore, the spleen of 8 animals per group was explanted, T-cells isolated and restimulated with different concentrations of the corresponding test substance. Compared to non-treated controls no significant increase in peptide restimulated T-cell proliferation was found. […] The stimulation index (SI) was calculated as the quotient of the response in the presence of the respective peptide and the response in the absence of peptides. […]

[4] = human, 1 μM, pH 7.8
Description: as §1

[5] = In vitro human plasma stability of GLP-1 CM peptides; settings: 20 ng/ml peptide, 37° C., 3 hours, GLP-1 (Active) ELISA, versus native GLP-1(7-37)
Description: Dipeptidylpeptidase activity of the plasma was inhibited by an DPP-IV inhibitor (#DPP4, Biotrend).

BALB/c mice = test: Immunogenicity study in BALB/c mice
Description: The trial was done in BALB/c mice receiving 5 repeated injections (70 μg peptide/dose, i.v.) over 22d (n=5).
Spleens of the treated and control mice were explanted, T-cells isolated and stimulated with increasing amounts of antigene. Proliferative recall response is measured.

[6] = tested on: type II diabetic mice (C57BUKs-Lepr db/db); test: In vivo bioactivity in type II diabetic mice; design: species or system mouse; settings: 5 μg peptide s.c. twice a day, Day 2, 4, 7, 10, overnight fasted
Description: 11-week-old type II diabetic mice (C57BUKs-Lepr^db/db, Harlan) were treated with 5 μg peptide by subcutaneous injection twice a day at 9 a.m. and 5 p.m. (n=5 per group).
Blood glucose was measured before (day 0) and after treatment with GLP^CM peptides (Day 2, 4, 7, 10) at 10 a.m. after an overnight fastening period. Data were presented in relation to blood glucose levels measured at day 0.
Best results were obtained with recombinant SEQ ID No.:6 (CM1) and synthetic SEQ ID No.:8 (CM3). In FIG. 5 (y-axis) the relative effect of the treatment is shown. Blood glucose at day=0 was set to 1. Untreated animals undergo continuous increase in blood glucose level over time, whereas animals treated with inventive peptides display grosso modo a continuous decrease of the blood glucose level over time.

[7] = 5 repeated injections, 70 μg peptide/dose, i.v., over 22d, BALB/c mice

in vitro plasma stability, comparison in words [2]: higher plasma stability than CM3
active GLP-1 left after 9h plasma exposure, % of the 0 h value [4]: 84%
Substance: HAEGTFTSDVSSYLEGQAAKEFIAWLVKGRGAADFPEEVAIAEELG [CM3-ANA01]
fall in plasma glucose @1 h [1]: 62% ± 12% @1 h
fall in plasma glucose @4 h [1]: 18% ± 11% @4 h
plasma glucose ED50 [1]: 0.55 μg/mouse
non fasted blood glucose level 1h after s.c. peptide injection, compared to control ([3]; 24 nmol/kg s.c.): 51%
fasted blood glucose level 18h after peptide injection [3]: reduced
relative body weight increase ([3]; after a treatment of 122 days, 24 nmol/kg s.c., p<0.001): significantly lower
food consumption ([3]; p<0.001): significantly lower

stability in human plasma in vitro (active GLP) [5]: significantly stabilized
Substance: HAEGTFTSDVSSYLEGQAAKEFIAWLVKGRGRRDFPEEVAIAEELG [CM3, GLP-1(7-37)-IP2]

Substance: GLP-1 (7-37)-IP2-RR-GLP1(7-37) [CM1]
stability in human plasma in vitro (active GLP) [5]: significantly stabilized
fall in plasma glucose @1 h [1]: 50% ± 14% @1 h
fall in plasma glucose @4 h [1]: 0% @4 h
plasma glucose ED50 [1]: 0.61 μg/mouse
T-cell antibody response and antibody titer (BALB/c mice; [7]): minimal
toxicity (BALB/c mice; [7]): no toxicity
clinically relevant immunogenicity (BALB/c mice; immunogenicity study in mice): absence of any clinically relevant immunogenicity
anti-hyperglycemia effect (blood glucose in relation to day 0) ([6]; listed as SEQ ID No.:6): anti-hyperglycemia effect
anti-hyperglycemia effect (blood glucose in relation to day 0) ([6]; listed as recombinant SEQ ID No.:6): Best results
non fasted blood glucose level 1h after s.c. peptide injection, compared to control ([3]; 24 nmol/kg s.c.): 55%
fasted blood glucose level 18h after peptide injection [3]: reduced
food consumption ([3]; p<0.001): significantly lower
